Like-named read-outs stand apart in the source and are kept apart here.
How the values were obtained:
AB5075 [1] = assay: Broth microdilution clarithromycin (CLR) potentiation and dose-response of adjuvant; format: cell-based, Acinetobacter baumannii
Method: (§1) Bacterial Strains and Antimicrobial Agents. Acinetobacter baumannii clinical isolate 5075 was obtained from Dr. Colin Manoil at the University of Washington. Colonies were grown on lysogeny broth (LB) agar. Cation-adjusted Mueller-Hinton Broth (CAMHB) (catalog number 212322) were purchased from BD Diagnostics. LB broth was purchased from Fisher Scientific (catalog number BP9722-2). […] Colistin sulfate salt (catalog number C4461) was purchased from Sigma Aldrich. All assays were completed in duplicate and repeated at least two separate times. All compounds were dissolved as their HCl salts in molecular biology grade DMSO as 10 or 100 mM stock solutions and stored at −20° C. Colistin was dissolved in sterile water while clarithromycin was dissolved in molecular biology grade DMSO.
Broth microdilution method for antibiotic potentiation. Day cultures (6 h) of bacteria in CAMHB were subcultured to 5×10^5 CFU/mL in CAMHB. Aliquots (4 mL) were placed in culture tubes and dosed with compound from 10 mM stock samples to give the desired concentration of the compound to be tested against the particular bacterial strain; this insured non-toxic DMSO concentrations ≤0.3% in each well. 1 mL of the resulting solution was placed in a separate culture and dosed with antibiotic at the highest concentration to be tested. Bacteria treated with antibiotic alone served as the control. Row one of a 96-well plate was filled with 200 μL of the antibiotic/2-AI solution, and rows 2-12 were filled with 100 μL each of the remaining 4 mL of bacterial subculture containing adjuvant at the desired concentration, except for the control lane which contained only bacterial subculture. Row one was then mixed five times, and 100 μL was transferred to row two, which was then mixed five times before being transferred to row three. This process was repeated until all rows had been mixed, except for row twelve which would have only 2-AI to serve as a control to monitor potential toxicity. The 96-well plate was then covered in Glad Press n'Seal and incubated under stationary conditions at 37° C. for 16 h. MIC values were determined as the lowest concentration at which no bacterial growth was observed, and fold reductions were determined by comparison to antibiotic control lane.
Dose-response of Adjuvant Assay. The procedure for ‘broth microdilution method for antibiotic potentiation’ was followed using 4 mL aliquots of adjuvant at various concentrations: 0, 5, 7.5, 10, 15, 20, 25, and 30 μM.

AB5075 [2] = assay: Broth microdilution MIC of compound alone (standalone toxicity); format: cell-based, Acinetobacter baumannii
Method: as §1
Broth microdilution method for MIC determination. Day cultures (6 h) of each bacterial strain in cation adjusted Mueller Hinton II broth (CAMHB, Fisher Scientific U.S.) were subcultured to 5×10^5 CFU/mL in CAMHB. Aliquots (1 mL) were placed in culture tubes and compound was added from 10 mM stock samples in DMSO, such that compound concentration equaled highest concentration tested (200 μM). Samples were then aliquoted (200 μL) into the first wells of a 96-well plate, with all remaining wells being filled with 100 μL of initial bacterial subculture. Row one wells were mixed five times, before 100 μL was transferred to row two. Row two was then mixed five times, and 100 μL was transferred to row three. This process was repeated until the final row had been mixed; this served to serially dilute the compound. Plates were then covered with GLAD Press n'Seal and incubated under stationary conditions at 37° C. for 16 h. MIC values were then recorded as the lowest concentration at which no bacterial growth was observed.

CLR MIC (AB5075 [1]; compound tested at 30 μM) [µg/mL] | Fold Reduction of CLR MIC (AB5075 [1]; compound tested at 30 μM) | CLR MIC (AB5075 [1]; compound tested at 10 μM) [µg/mL] | CLR MIC (AB5075 [1]; compound tested at 20 μM) [µg/mL] | CLR MIC (AB5075 [1]; compound tested at 7.5 μM) [µg/mL] | Fold Reduction of CLR MIC (AB5075 [1]; compound tested at 10 μM) [fold] | Fold Reduction of CLR MIC (AB5075 [1]; compound tested at 20 μM) [fold] | SMILES | MIC (AB5075 [2]; Acinetobacter baumannii) [µM] | other results
8 | four-fold | – | – | – | – | – | Cl.Nc1nc(-c2ccc(NC(=O)c3cccc(Cl)c3Cl)cc2)c[nH]1 [Compound 4q, N-(4-(2-amino-1H-imidazol-4-yl)phenyl)-2,3-dichlorobenzamide hydrochloride] | > 200 | –
4 | eight-fold | – | – | – | – | – | Cl.Nc1nc(-c2ccc(NC(=O)c3ccc(Cl)cc3Cl)cc2)c[nH]1 [Compound 4t] | – | MIC (AB5075 [2]): >200 µM
2 | – | 32 | 16 | – | – | – | Cl.Nc1nc(-c2ccc(NC(=O)c3ccc(Br)cc3F)cc2)c[nH]1 [Compound 4u] | – | MIC (AB5075 [2]): >200 µM
32 | – | – | – | – | – | – | Cl.Nc1nc(-c2ccc(NC(=O)c3cc(I)c(I)c(I)c3)cc2)c[nH]1 [Compound 4w] | – | MIC (AB5075 [2]): >200 µM
4 | – | – | – | – | – | – | Cl.Nc1nc(-c2ccc(NC(=O)c3c(F)c(F)c(F)c(F)c3F)cc2)c[nH]1 [Compound 4x, N-(4-(2-amino-1H-imidazol-4-yl)phenyl)-2,3,4,5,6-pentafluorobenzamide hydrochloride] | > 200 | –
– | – | 0.25 | 0.25 | 8 | 128 | – | Cl.Nc1nc(-c2ccc(NC(=O)c3cc(Cl)c(Br)c(Cl)c3)cc2)c[nH]1 [Compound 4y, N-(4-(2-amino-1H-imidazol-4-yl)phenyl)-4-bromo-3,5-dichlorobenzamide hydrochloride] | 200 | –
0.5 | 64 fold | 16 | 4 | – | – | 8 | COc1cc(-c2c[nH]c(N)n2)ccc1NC(=O)c1cc(Cl)cc(Cl)c1.Cl [Compound 6a, N-(4-(2-amino-1H-imidazol-4-yl)-2-methoxyphenyl)-3,5-dichlorobenzamide hydrochloride] | 100 | –
0.5 | 64 fold | 8 | 0.5 | – | – | 64 | Cc1cc(NC(=O)c2cc(Cl)cc(Cl)c2)ccc1-c1c[nH]c(N)n1.Cl [Compound 6b, N-(4-(2-amino-1H-imidazol-4-yl)-3-methylphenyl)-3,5-dichlorobenzamide hydrochloride] | > 200 | –
0.5 | 64 fold | 16 | 1 | – | – | 32 | Cc1cc(-c2c[nH]c(N)n2)ccc1NC(=O)c1cc(Cl)cc(Cl)c1.Cl [Compound 10a, N-(4-(2-amino-1H-imidazol-4-yl)-2-methylphenyl)-3,5-dichlorobenzamide hydrochloride] | > 200 | –
16 | – | – | – | – | – | – | Cl.Nc1nc(-c2ccc(NC(=O)c3cc(Cl)cc(Cl)c3)c(Cl)c2)c[nH]1 [Compound 10b, N-(4-(2-amino-1H-imidazol-4-yl)-2-chlorophenyl)-3,5-dichlorobenzamide hydrochloride] | > 200 | –
8 | – | – | – | – | – | – | Cl.Nc1nc(-c2ccc(NC(=O)c3cc(Cl)cc(Cl)c3)c(F)c2)c[nH]1 [Compound 10c, N-(4-(2-amino-1H-imidazol-4-yl)-2-fluorophenyl)-3,5-dichlorobenzamide hydrochloride] | > 200 | –
– | – | 0.5 | 0.25 | 4 | 64 | 128 | Cl.Nc1nc(-c2ccc(NC(=O)c3cc(Cl)cc(Cl)c3)cc2F)c[nH]1 [Compound 10d, N-(4-(2-amino-1H-imidazol-4-yl)-3-fluorophenyl)-3,5-dichlorobenzamide hydrochloride] | > 200 | CLR MIC (AB5075 [1]; compound tested at 5 μM): 8 µg/mL; Fold Reduction of CLR MIC (AB5075 [1]; compound tested at 5 μM): 4 fold; CLR MIC (AB5075 [1]; compound tested at 30 μM, hydrochloride): 0.25 µg/mL
0.5 | 64 fold | 8 | 0.5 | – | – | 64 | Cl.Nc1nc(-c2ccc(NC(=O)c3cc(Cl)cc(Cl)c3)cc2Cl)c[nH]1 [Compound 10e, N-(4-(2-amino-1H-imidazol-4-yl)-3-chlorophenyl)-3,5-dichlorobenzamide hydrochloride] | > 200 | –
2 | 16 fold | 16 | 8 | – | 2 | 4 | Cl.Nc1nc(-c2ccc(NC(=O)c3cc(Br)cc(Br)c3)cc2F)c[nH]1 [Compound 15a, N-(4-(2-amino-1H-imidazol-4-yl)-3-fluorophenyl)-3,5-dibromobenzamide hydrochloride] | > 200 | MIC (AB5075 [2]; hydrochloride): >200 µM
– | – | 8 | – | 16 | 4 | – | Cl.Nc1nc(-c2ccc(NC(=O)c3ccc(C(F)(F)F)c(Cl)c3)cc2F)c[nH]1 [Compound 17a, N-(4-(2-amino-1H-imidazol-4-yl)-3-fluorophenyl)-3-chloro-4-(trifluoromethyl)benzamide hydrochloride] | 50 | CLR MIC (AB5075 [1]; compound tested at 15 μM): 0.25 µg/mL; Fold Reduction of CLR MIC (AB5075 [1]; compound tested at 15 μM): 128 fold
– | – | 2 | – | 8 | 16 | – | Cl.Nc1nc(-c2ccc(NC(=O)c3ccc(Cl)c(C(F)(F)F)c3)cc2F)c[nH]1 [Compound 17b, N-(4-(2-amino-1H-imidazol-4-yl)-3-fluorophenyl)-4-chloro-3-(trifluoromethyl)benzamide hydrochloride] | 50 | Fold Reduction of CLR MIC (AB5075 [1]; compound tested at 7.5 μM): 4 fold; CLR MIC (AB5075 [1]; compound tested at 15 μM): 0.25 µg/mL; Fold Reduction of CLR MIC (AB5075 [1]; compound tested at 15 μM): 128 fold
– | – | – | – | 0.5 | – | – | Cl.Nc1nc(-c2ccc(NC(=O)Nc3cc(Cl)cc(Cl)c3)cc2)c[nH]1 [Compound 20b, 1-(4-(2-amino-1H-imidazol-4-yl)phenyl)-3-(3,5-dichlorophenyl)urea hydrochloride] | 25 | CLR MIC (AB5075 [1]; compound tested at 5 μM): 8 µg/mL; Fold Reduction of CLR MIC (AB5075 [1]; compound tested at 5 μM): 4 fold; Fold Reduction of CLR MIC (AB5075 [1]; compound tested at 7.5 μM): 64 fold
– | – | 0.25 | ≤0.0625 | 2 | 128 | ≥512 | Cl.Nc1nc(-c2ccc(NC(=O)Nc3ccc(Cl)c(Cl)c3)cc2)c[nH]1 [Compound 20c, 1-(4-(2-amino-1H-imidazol-4-yl)phenyl)-3-(3,4-dichlorophenyl)urea hydrochloride] | 100 | CLR MIC (AB5075 [1]; compound dosed at higher concentrations (≥20 μM)): ≤ 0.0625 µg/mL; CLR MIC (AB5075 [1]; compound tested at 5 μM): 8 µg/mL; Fold Reduction of CLR MIC (AB5075 [1]; compound tested at 5 μM): 4 fold; Fold Reduction of CLR MIC (AB5075 [1]; compound tested at 7.5 μM): 16 fold

— patent US12559461B2, “Antibiotic adjuvant compounds” (UNIVERSITY OF NOTRE DAME DU LAC, priority 2020, dated 2026)
